Consider 9 molecules from ChEMBL document CHEMBL1146326, “13C bis-labeled pyrroles: a tool for the identification of the rat metabolism of 3-methyl pyrrole-2,4-dicarboxylic acid 2-propyl ester 4-(1,2,2-trimethyl-propyl) ester” (Bioorg Med Chem Lett, 2007).

pIC50: −log10 of the molar value. Some results are limits rather than exact numbers.

The target of this assay is Metabotropic glutamate receptor 1 (Homo sapiens, UniProt Q13255). Kind of assay: Inhibition of recombinant mGluR1a receptor expressed in CHO cells. Type of assay: cell-based.
Chain of Metabotropic glutamate receptor 1 (Q13255 whole entry): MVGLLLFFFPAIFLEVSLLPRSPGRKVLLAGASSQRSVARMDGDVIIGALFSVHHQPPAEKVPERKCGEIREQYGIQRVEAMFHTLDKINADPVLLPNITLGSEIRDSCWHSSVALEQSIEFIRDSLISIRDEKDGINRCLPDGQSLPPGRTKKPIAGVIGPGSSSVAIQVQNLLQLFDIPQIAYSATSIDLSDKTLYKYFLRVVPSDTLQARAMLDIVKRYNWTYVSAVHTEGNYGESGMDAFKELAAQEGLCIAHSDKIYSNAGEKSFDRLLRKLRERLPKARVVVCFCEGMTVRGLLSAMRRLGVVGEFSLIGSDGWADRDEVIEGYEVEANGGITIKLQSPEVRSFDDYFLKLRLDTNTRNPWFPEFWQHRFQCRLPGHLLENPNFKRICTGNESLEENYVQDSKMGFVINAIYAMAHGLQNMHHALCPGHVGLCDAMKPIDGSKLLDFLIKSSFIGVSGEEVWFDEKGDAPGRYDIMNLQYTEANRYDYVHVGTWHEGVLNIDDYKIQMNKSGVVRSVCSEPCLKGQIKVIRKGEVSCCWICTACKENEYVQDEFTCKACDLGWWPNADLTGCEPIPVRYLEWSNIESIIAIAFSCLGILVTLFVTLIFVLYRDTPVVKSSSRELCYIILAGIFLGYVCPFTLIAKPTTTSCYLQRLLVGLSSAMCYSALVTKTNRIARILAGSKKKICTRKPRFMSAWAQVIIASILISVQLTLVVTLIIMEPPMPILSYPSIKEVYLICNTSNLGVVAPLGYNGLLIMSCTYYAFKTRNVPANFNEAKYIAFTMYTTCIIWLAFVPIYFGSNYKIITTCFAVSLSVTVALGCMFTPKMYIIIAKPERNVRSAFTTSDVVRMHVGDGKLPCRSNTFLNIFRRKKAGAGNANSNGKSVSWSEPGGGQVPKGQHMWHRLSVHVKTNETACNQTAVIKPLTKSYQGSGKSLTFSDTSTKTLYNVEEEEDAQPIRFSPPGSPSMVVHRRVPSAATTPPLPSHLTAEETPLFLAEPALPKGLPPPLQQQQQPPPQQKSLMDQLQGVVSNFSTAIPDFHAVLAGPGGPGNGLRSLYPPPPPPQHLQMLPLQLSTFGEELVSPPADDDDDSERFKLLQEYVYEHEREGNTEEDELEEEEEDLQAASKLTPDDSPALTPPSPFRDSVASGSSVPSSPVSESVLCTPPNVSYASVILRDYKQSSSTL
One may read the pIC50 as the negative decadic logarithm of the IC50, by convention in mol/L. Turning to `COCCNC(=O)c1[nH]cc(C(=O)O[C@@H](C)C(C)(C)C)c1C`, the pIC50 was 7.50.

For `CCOC(=O)c1[nH]c(C)c(C(=O)OC2CC3CCC2C3)c1C` (centres undefined), the pIC50 is 7.00.

Consider `COCCNC(=O)c1[nH]cc(C(=O)NC2CC3CCC2C3)c1C` (centres undefined), for which the pIC50 was below 5.00.

Turning to `COCCNC(=O)c1[nH]c(C)c(C(=O)OC2CC3CCC2C3)c1C` (centres undefined), the pIC50 was 6.50.

In the case of `CCOC(=O)c1[nH]cc(C(=O)OC2CC3CCC2C3)c1C` (centres undefined), the negative-log IC50 (pIC50) is 7.70.

For `CCCOC(=O)c1[nH]cc(C(=O)O[C@@H](C)C(C)(C)C)c1C`, the pIC50 was 8.40.

For `COCCNC(=O)c1[nH]cc(C(=O)OC2CC3CCC2C3)c1C` (centres undefined), the pIC50 was 6.80.

As to `CC(=O)NCCCCNC(=O)c1[nH]c(C)c(C(=O)OC2CC3CCC2C3)c1C` (centres undefined), the pIC50 was 6.00.

For the molecule `CC(=O)NCCCCNC(=O)c1[nH]cc(C(=O)OC2CC3CCC2C3)c1C` (centres undefined), the pIC50 is 6.70.
